Test results reported in the METLIN SMRT retention time set (Domingo-Almenara et al. 2019).

Test: gradient 5% acetonitrile 3 min, to 50% in 2 min, to 85% in 15 min, held 3 min, 100 µL/min
Settings: column: Zorbax Extend-C18 2.1 x 50 mm; eluents: water / acetonitrile, 0.1% formic acid
Summary of the method: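 Data were gathered over 3 months by HPLC coupled to a quadrupole time-of-flight mass spectrometer, operated in positive and negative ionization mode. Mixtures of ~100 pure standards ran on a Zorbax Extend-C18 column (2.1 × 50 mm, 1.8 μm) at 100 μL/min, with water and acetonitrile each containing 0.1% formic acid and dead and dwell volumes of 40 μL and 900 μL. Retention time was read from adduct peaks picked by computer and checked manually.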

Row | SMILES | RP-LC retention time [s]
1 | O=C(NCC1CCCCC1)C1CCN(c2cncnc2N2CCOCC2)CC1 | 644
2 | O=C(Nc1cccc(Br)c1)NC1CCN(c2ccc(F)cc2)C1=O (stereo unspecified) | 818
3 | O=C(CCc1c(-c2ccccc2)nc2ccccn12)Nc1ccc(F)cc1Cl | 795
4 | O=C(CS(=O)Cc1cnn(-c2ccccc2)c1-n1cccc1)NCc1ccccc1 (stereo unspecified) | 797
5 | CCNC(=O)C1CCCN(C(=O)Nc2ccc(NC(=O)Nc3ccccc3F)cc2)C1 (stereo unspecified) | 689
6 | COc1ccccc1-c1noc(C2CCCN2C(=O)c2sc(C)nc2C)n1 (stereo unspecified) | 750
7 | Cc1ccc(-n2cc3c(N4CCCC(C(=O)NCc5ccc(C(F)(F)F)cc5)C4)ncnc3n2)cc1 (stereo unspecified) | 786
8 | Cc1cc(NC(=O)C(=O)NCCCn2ccnc2)ccc1Br | 659
9 | CCC(C)NC(=O)CCCn1c(=O)c2cccn2c2ccc(Br)cc21 (stereo unspecified) | 894
10 | COc1cc(Cl)c(NS(=O)(=O)c2c(C)sc(C)c2-c2n[nH]c(C)c2C)c(OC)c1 | 980
11 | CCOc1ccc(S(=O)(=O)NCCn2nc(C)cc2C)cc1F | 731
12 | Cc1ccc(NC(=O)c2cccn2Cc2noc(C3CC3)n2)c(Cl)c1 | 1030
13 | O=C(Cn1cccc1-c1nnc(-c2ccccc2)o1)Nc1cccc(Cl)c1 | 1050
14 | O=C(c1ccc(OCC2CCN(C(=O)c3ccoc3)CC2)cc1)N1CCOCC1 | 697
15 | CCN(CC)CCCC(C)Nc1nc(C)cc(Nc2ccc3nc(C)cc(N)c3c2)n1 (stereo unspecified) | 568
16 | CN1C(=O)c2cccn2CC1CNC(=O)c1nccn1C (stereo unspecified) | 573
17 | COc1cccc(CNC(=O)Cn2c(C)nc3onc(C)c3c2=O)c1 | 727
18 | COc1ccc(-c2ncc3c(=O)n(CC(=O)N4CCCC4)c(=O)n(C)c3n2)cc1 | 815
19 | O=C(O)c1cn(Cc2ccccc2F)c(=O)c2ccccc12 | 801
20 | COC(=O)c1cc(OCC(=O)Nc2cccc(Cl)c2)c2ccccc2n1 | 821
21 | Cn1ncc2c(N3CCCC3)nc(C(=O)NCc3ccc(F)cc3)nc21 | 790
22 | CC[C@@]1(O)C(=O)OCc2c1cc1n(c2=O)Cc2cc3c(NC(=O)CN)cccc3nc2-1 | 626
23 | Cc1nn2c(S(=O)(=O)N3CCCCC3)c(C)nc2s1 | 792

Row | SMILES | RP-LC retention time [s]
24 | COc1ccc2nc(C(=O)N3CCN(c4ccc(Cl)cc4)CC3)cn2n1 | 900
25 | CCS(=O)(=O)N1CC(=O)N(c2cc(C)ccc2C)C(C)(C(=O)NC2CCCC2)C1 (stereo unspecified) | 834
26 | O=C(Cc1ccc(NC(=O)c2ccc(F)cc2Cl)cc1)NC1CC1 | 681
27 | CCOC(=O)Nc1csnn1 | 711
28 | COc1ccc(-n2nnc(-c3nc(-c4cc(OC)ccc4OC)cs3)c2C)cc1 | 1140
29 | Cc1ccc(NC(=O)c2cn(C)nc2S(=O)(=O)N2CCSCC2)cc1 | 928
30 | Cc1ccn2cc(C(=O)NCc3ccc(N4CCOCC4)cc3)nc2c1 | 591
31 | Cc1[nH]c(-c2ccccc2)cc1C(=O)N1CCCCCC1 | 896
32 | CCC(=O)Nc1ccc(-n2cnc(C(=O)N3CCN(c4ccc(OC)cc4)CC3)c2)nc1 | 653
33 | Cc1ccc(C(=O)N2C[C@@H](F)C[C@H]2C(=O)N2CCOCC2)cc1 | 621
34 | CCOc1ccc(-c2cc3c(=O)n(Cc4nc(-c5ccc(SC)cc5)no4)ncn3n2)cc1 | 1210
35 | Cc1ccc(-n2nc(CO)c(C(=O)NC3CCCC3)n2)cc1C | 1090
36 | O=C(NCc1ccccc1)C1CCN(C(=O)c2ncn3c2COC(c2ccc(Cl)cc2)C3)CC1 (stereo unspecified) | 760
37 | Cc1c(C(=O)C(=O)Nc2ccccc2C(N)=O)c2ccccc2n1C | 796
38 | CCOC(=O)COc1cc(-c2ccc(F)cc2)nc2ccc(NC(=O)c3ccco3)cc12 | 798
39 | COc1cccc(CNC(=O)C2CCCN(c3ccc(-c4nc(C)no4)cn3)C2)c1OC (stereo unspecified) | 753
40 | Cc1cc2nc(C(=O)Nc3ccccc3F)cc(C)n2n1 | 1000
41 | CCCc1ccc(S(=O)(=O)N2CCc3c(c(-c4nnc(-c5ccc(F)cc5)o4)nn3C)C2)cc1 | 1070
42 | C=CCN1C(=O)COc2ccc(-c3nc(NC(C)=O)sc3C)cc21 | 787
43 | Cc1cc(C)cc(NC(=O)CSc2cc(N3CCCCC3)ncn2)c1 | 990
44 | Cc1ccc(C)c(S(=O)(=O)Nc2ccc(Cn3cncn3)cc2)c1 | 725
45 | CC(=O)N(Cc1nn(C)c2c1CN(S(=O)(=O)c1cccc(F)c1)CC2)c1ccccc1 | 796
46 | Cc1cc(C)cc(N2CCC(NC(=O)Nc3cc(C)ccc3C)C2=O)c1 (stereo unspecified) | 955

Row | SMILES | RP-LC retention time [s]
47 | N#CCn1cccc1-c1nc(-c2cccnc2)no1 | 776
48 | Cc1ccc(CN2C[C@@H](CO)[C@H](c3nc(C)no3)C2)cc1 | 592
49 | CCc1nc(-c2csc(S(=O)(=O)N3CCCC(C(=O)Nc4ccc(C)cc4)C3)c2)no1 (stereo unspecified) | 901
50 | COc1ccc(-c2nc(-c3ccc4ncn(C(C)C)c4c3)no2)cc1OC | 727
51 | O=C(CCC1CCCN(c2cc(NC3CC3)ncn2)C1)NCCc1ccncc1 (stereo unspecified) | 564
52 | COC(=O)c1ccccc1NC(=O)c1cnc2c(c1)c(=O)n(C)c(=O)n2-c1ccccc1 | 1030
53 | CCc1noc2nc(C)nc(N3CCCC(C(=O)NC4CC4)C3)c12 (stereo unspecified) | 711
54 | Cc1sc(-c2nnc(C3CC3)o2)cc1NC(=O)Cc1c[nH]c2ccccc12 | 877
55 | O=C(O)c1ccc(Nc2c(-c3cccc(Br)c3)nc3cnccn23)cc1 | 736
56 | CCC1(O)C(=O)OCc2c1cc1n(c2=O)Cc2cc3c(N)cccc3nc2-1 (stereo unspecified) | 632
57 | Cc1ccc(-c2nc3cnccn3c2Nc2ccc(C(=O)O)cc2)cc1 | 706
58 | CCCN(CC1CCOC1)S(=O)(=O)c1cccc(F)c1 (stereo unspecified) | 850
59 | CC(C)N(C(=O)Cn1c(CNC(=O)c2ccco2)nc2ccccc21)c1ccccc1 | 698
60 | CCc1nn2c(CNS(=O)(=O)c3ccc(C)c(C)c3)c(-c3ccccc3)nc2s1 | 984
61 | CCc1cccc(C)c1Nc1c(-c2ccc(C)cc2)nc2cnccn12 | 996
62 | CN(Cc1ccccc1)Cc1nc(-c2ccc(N3CCSCC3)nc2)no1 | 837
63 | CCC1(O)CCC12CCN(C(=O)c1ccsc1)CC2 (stereo unspecified) | 716
64 | Cc1nn(C)c(=O)c2cc(S(=O)(=O)NC(C)c3ccccc3)cn12 (stereo unspecified) | 801
65 | CCOC(=O)c1ncn2c1[C@@H]1CCCN1C(=O)c1cc(OC)ccc1-2 | 758
66 | CCc1ccc(-c2nc(C3CC(=O)N(c4ccc(F)c(Cl)c4)C3)no2)cc1 (stereo unspecified) | 1200
67 | O=C(O)C1CCCCC1C(=O)NCCc1csc(-c2cccnc2)n1 (stereo unspecified) | 593
68 | CCN(Cc1ccccc1)C(=O)CN1C(=O)CCc2cc(Br)ccc21 | 1000
69 | Cc1ccccc1S(=O)(=O)N1CCC(CCC(=O)NC2CCS(=O)(=O)C2)CC1 (stereo unspecified) | 726

Row | SMILES | RP-LC retention time [s]
70 | CC(C)n1c(=O)c2ccccc2n(Cc2nc(-c3ccccc3Cl)no2)c1=O | 1130
71 | COc1ccc(-c2nnc(-c3ccccc3Cl)o2)cc1S(=O)(=O)N1CCC(C)CC1 | 1150
72 | COc1cccc(CNC(=O)NCCC2CCN(S(=O)(=O)c3ccc(F)cc3)CC2)c1 | 842
73 | O=C(Cn1ccc2c(SCc3ccc(F)cc3)nccc21)N1CCN(c2ccccc2)CC1 | 782
74 | Cc1cc(C)cc(NC(=O)Cn2c(N3CCOCC3)nc(C)cc2=O)c1 | 711
75 | CN1CCN(c2ncc3c(n2)CC(c2ccc(Cl)cc2)CC3=O)CC1 (stereo unspecified) | 674
76 | CCOC(=O)Nc1c(Cl)n(C)c(=O)n(C)c1=O | 648
77 | Cc1cc2[nH]c(C(=O)Nc3ccccc3Br)c(CN(C)C)c2s1 | 659
78 | O=C(NC1CCN(C(=O)c2cn(-c3ccc(Cl)cc3)nn2)CC1)c1cccs1 | 628
79 | O=C(Cc1cccs1)NCCCN1CCOC(c2ccccc2)C1 (stereo unspecified) | 556
80 | O=C(NCc1cccc(Br)c1)c1ccc2ncnc(N3CCCC3)c2c1 | 679
81 | CC(C)CNC(=O)Cc1nnc(-c2cccc(F)c2)o1 | 744
82 | CC1CCN(c2nc(-c3ccc(Cl)cc3)nc3ccccc23)CC1 | 947
83 | CS(=O)(=O)N1CCC(CNC(=O)NC(c2ccccc2)c2ccccc2)CC1 | 732
84 | COc1cc(OC)cc(C(=O)Nc2nc(C(=O)NC(C)c3ccccc3)cs2)c1 (stereo unspecified) | 873
85 | Cc1[nH]c(=O)[nH]c(=O)c1S(=O)(=O)NC(C)C | 581
86 | O=C(NCc1ccc(Br)cc1)c1sc2ncccc2c1-n1cccc1 | 1090
87 | Cc1cc(NC(=O)C2CCN(C(=O)c3snnc3C)CC2)no1 | 618
88 | COC(=O)c1cc2n(n1)CC(C)(C(=O)NC1CCC(C)CC1)N(Cc1ccccc1)C2=O (stereo unspecified) | 816
89 | COc1ccc(OC)c(N2C(=O)c3cccnc3C2Nc2ccc(C(C)=O)cc2)c1 (stereo unspecified) | 698
90 | CCS(=O)(=O)Nc1ccc(-c2noc(COc3ccc(OC)cc3)n2)cc1 | 919
91 | CCc1nn2c(CNC(=O)c3ccc(C)c(F)c3)c(-c3ccccc3)nc2s1 | 985
